Entries after “also recorded” stand apart in the source; their conditions may differ. Where two headings read alike, the source gives them in different places. Peptide text beside a SMILES is read from it. * marks the point of attachment. Cbz = O=C(OCc1ccccc1)*; Bz = O=C(c1ccccc1)*
Legend:
[1] = test system: carboxypeptidase activity in crude extract; experiment: Effect of DTT and EDTA on carboxypeptidase activity in crude extract; format: biochemical, Pyrococcus furiosus; conditions: preliminary studies
PfuCP [2] = molecular target: T1, PfuCP (Pyrococcus furiosus, UniProt Q8U3L0); format: biochemical
T1 construct: Pure PfuCP fractions (1391 U.mg^1; 11 mg), as determined by SDS-PAGE, were pooled and stored at −80° C; endogenous in cells; host or cells: Pyrococcus furiosus cell paste; enzyme purified in house by column chromatography
T1 sequence (Q8U3L0 1-499): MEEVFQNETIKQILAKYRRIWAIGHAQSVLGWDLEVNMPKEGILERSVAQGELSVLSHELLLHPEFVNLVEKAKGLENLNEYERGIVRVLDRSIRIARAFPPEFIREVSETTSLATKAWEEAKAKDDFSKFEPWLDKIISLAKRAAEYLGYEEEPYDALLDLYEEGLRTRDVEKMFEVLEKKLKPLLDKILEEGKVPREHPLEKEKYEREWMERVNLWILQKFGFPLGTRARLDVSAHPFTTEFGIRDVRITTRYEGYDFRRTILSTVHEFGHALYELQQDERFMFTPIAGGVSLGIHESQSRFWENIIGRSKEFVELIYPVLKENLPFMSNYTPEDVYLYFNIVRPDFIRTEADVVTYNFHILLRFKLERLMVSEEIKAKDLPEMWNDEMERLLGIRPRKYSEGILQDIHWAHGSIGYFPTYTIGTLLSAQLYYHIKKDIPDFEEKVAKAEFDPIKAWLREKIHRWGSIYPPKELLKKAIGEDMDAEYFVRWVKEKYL
Procedure: (§1) Assay of Enzyme Activity: Unless stated otherwise, enzymatic activity was assayed using 4 μl of enzyme sample in a total volume of 100 μl of 0.1 M KMES buffer (pH 6.5), starting with 2 mM ZAR in the presence of 0.4 mM CoCl2. Polypropylene microcentrifuge tubes were used. The enzyme and substrate were mixed quickly at room temperature and then brought to 80° C.; the equilibration time for the reaction mixture to reach 80° C. was considered negligible relative to the time scale of the assay. The reaction mixture was incubated at 80° C. in a water bath (Neslab EX-200 DD) for 10 minutes followed by quenching on ice. Subsequently, 750 μl of cadmium-ninhydrin reagent (21) was added and the samples were incubated for an additional 5 min at 80° C. for color development followed by quenching on ice. The absorbance was read at 500 nm (HP 8452A diode array spectrophotometer) with an unheated assay mixture containing Cd-ninhydrin reagent serving as the blank. Absorbances were compared with an arginine standard curve in order to calculate specific activities. Stock solutions of ZAR and CoCl2 were prepared in 0.1 M KMES buffer (pH 6.5), and when necessary, dilution of enzyme samples was done in 50 mM Tris-Cl buffer (pH 8.0). All pH adjustments were performed at room temperature. The free amine of the liberated arginine reacts with ninhydrin to yield the chromophore, Ruheman's purple (absorbance at 500 nm).

PfuCP [3] = molecular target: T1, PfuCP; experiment: Hydrolysis of synthetic substrates by PfuCP; format: biochemical; conditions: for hydrolysis by PfuCP: initial studies and control experiment; for hydrolysis by PfuCP at longer digestion time: digestion time 30 minutes, not detected under standard conditions
Procedure: as §1
One unit of activity is defined as the amount of enzyme required to generate one μmole of arginine from ZAR in one minute at 80° C. Activity assays for other ZAX amino acid substrates (X=A, D, E, F, G, H, I, K, L, M, N, P, R, S, V, W, Y) were performed under otherwise identical assay conditions; appropriate amino acids were used to prepare standard curves. Spontaneous hydrolysis of the synthetic substrates was not observed at these temperatures. Protein concentrations were quantified by the Bradford assay using bovine serum albumin as the standard.

PfuCP [4] = molecular target: T1, PfuCP; experiment: Re-activation by metal ions: divalent metal ion dependence of PfuCP activity; format: biochemical; conditions: at 80° C.; linear reciprocal plot; read-out: binding constant (Kd) for Co^2+
Procedure: as §1, with “All pH adjustments were performed at room temperature.” left out, “nm). […]” for “nm).”

O[C@H](CS)[C@H](O)CS (racemic) [DTT, dithiothreitol]
effect on carboxypeptidase activity in crude extract [1]: completely abolished
reversibility of inhibition (PfuCP [2]): fully reversible
effect on PfuCP activity (PfuCP [2]; 2 mM): not observed

NC(N)=NCCC[C@H](NC(=O)CNC(=O)c1ccccc1)C(=O)O [hippuryl-arginine, N-Benzoyl-Gly-Arg] (Bz-Gly-Arg-OH)
hydrolysis by PfuCP (PfuCP [3]): active

C[C@H](NC(=O)OCc1ccccc1)C(=O)N[C@@H](CC(N)=O)C(=O)O [ZAN] (Cbz-Ala-Asn-OH)
hydrolysis by PfuCP at longer digestion time (PfuCP [3]): hydrolyzed; also recorded: observed

O=C(O)CN(CCN(CC(=O)O)CC(=O)O)CC(=O)O [EDTA, ethylenediaminetetraacetic acid]
effect on carboxypeptidase activity in crude extract [1]: completely abolished
effect on PfuCP activity (PfuCP [2]): not observed
reversibility of inhibition (PfuCP [2]): fully reversible

C[C@H](NC(=O)OCc1ccccc1)C(=O)O [ZA, N-Cbz-Ala]
hydrolysis by PfuCP (PfuCP [3]): no hydrolysis

O=S(=O)(F)Cc1ccccc1 [PMSF, Phenymethylsulfonyl fluoride]
effect on PfuCP activity (PfuCP [2]; 1 mM): no effect
effect on the enzymatic activity of the polypeptide (PfuCP [2]; concentration not given): no effect

CC(NC(=O)OCc1ccccc1)C(=O)NC(Cc1cnc[nH]1)C(=O)O (stereo not drawn) [ZAH]
hydrolysis by PfuCP at longer digestion time (PfuCP [3]): hydrolyzed; also recorded: observed

[Co+2] [Co^2+]
Kd (PfuCP [4]): 13 ± 3 µM

CC(NC(=O)OCc1ccccc1)C(=O)NC(CO)C(=O)O (stereo not drawn) [ZAS]
hydrolysis by PfuCP at longer digestion time (PfuCP [3]): hydrolyzed; also recorded: observed

O=C(O)CNC(=O)c1ccccc1 [hippuric acid, Bz-Gly]
hydrolysis by PfuCP (PfuCP [3]): activity

— patent US6967096B2, “Thermostable peptidase” (California Institute of Technology, priority 1998, dated 2005)
